Assay results published in paper PMC10006169, “A phase I trial of LXS196, a protein kinase C (PKC) inhibitor, for metastatic uveal melanoma” (British Journal of Cancer, 2023).
Like-named read-outs stand apart in the source and are kept apart here.

Test: Plasma pharmacokinetics (LC-MS/MS)
Type: in vivo, human
Conditions: human, plasma; for concentration at 15 day: read-out: Cmin, Median (Min, max)
Method: In the dose escalation part of the study, PK samples were collected at various pre- and post-dose time points on C1D1, D2, D3, D15 and D16. Drug concentrations were assessed using a validated liquid chromatography-tandem mass spectrometry assay.

CC1(N)CCN(c2cccnc2NC(=O)c2nc(-c3ncccc3C(F)(F)F)cnc2N)CC1 [LXS196]
AUC(0-t) (oral, 500 mg, C1D1, 500 mg QD, n=10, read-out: AUC0-t, Median (Min, max)): 50700 ng·h/mL
AUC(0-inf) (oral, 500 mg, C1D1, 500 mg QD, n=10, read-out: AUCinf, Geo-mean): 59500 ng·h/mL
AUC(0-inf) (oral, 500 mg, C1D1, 500 mg QD, n=10, read-out: AUCinf, Mean (SD)): 63400 ng·h/mL
AUC(0-inf) (oral, 500 mg, C1D1, 500 mg QD, n=10, read-out: AUCinf, Median (Min, max)): 61700 ng·h/mL
Cmax (oral, 500 mg, C1D1, 500 mg QD, n=10, read-out: Cmax, Geo-mean): 4670 ng/mL
Cmax (oral, 500 mg, C1D1, 500 mg QD, n=10, read-out: Cmax, Mean (SD)): 4970 ng/mL
Cmax (oral, 500 mg, C1D1, 500 mg QD, n=10, read-out: Cmax, Median (Min, max)): 4380 ng/mL
half-life (oral, 500 mg, C1D1, 500 mg QD, n=10, read-out: T1/2, Geo-mean (converted)): 10.1 h
half-life (oral, 500 mg, C1D1, 500 mg QD, n=10, read-out: T1/2, Mean (SD) (converted)): 10.2 h
half-life (oral, 500 mg, C1D1, 500 mg QD, n=10, read-out: T1/2, Median (Min, max) (converted)): 10.1 h
Tmax (oral, 500 mg, C1D1, 500 mg QD, n=10, read-out: Tmax, Median (Min, max)): 1.03 h
AUC(0-t) (oral, 500 mg, C1D15, 500 mg QD, n=9, read-out: AUC0-t, Geo-mean): 43100 ng·h/mL
AUC(0-t) (oral, 500 mg, C1D15, 500 mg QD, n=9, read-out: AUC0-t, Mean (SD)): 45700 ng·h/mL
AUC(0-t) (oral, 500 mg, C1D15, 500 mg QD, n=9, read-out: AUC0-t, Median (Min, max)): 41700 ng·h/mL
Cmax (oral, 500 mg, C1D15, 500 mg QD, n=9, read-out: Cmax, Geo-mean): 3870 ng/mL
Cmax (oral, 500 mg, C1D15, 500 mg QD, n=9, read-out: Cmax, Mean (SD)): 4170 ng/mL
Cmax (oral, 500 mg, C1D15, 500 mg QD, n=9, read-out: Cmax, Median (Min, max)): 3700 ng/mL
concentration at 15 day (oral, 500 mg, C1D15, 500 mg QD, n=9): 643 ng/mL
Tmax (oral, 500 mg, C1D15, 500 mg QD, n=9, read-out: Tmax, Median (Min, max)): 1.07 h
AUC(0-t) (oral, 800 mg, C1D1, 800 mg QD, n=1, read-out: AUC0-t, Geo-mean): 54300 ng·h/mL
AUC(0-t) (oral, 800 mg, C1D1, 800 mg QD, n=1, read-out: AUC0-t, Mean (SD)): 54300 ng·h/mL
AUC(0-t) (oral, 800 mg, C1D1, 800 mg QD, n=1, read-out: AUC0-t, Median (Min, max)): 54300 ng·h/mL
AUC(0-inf) (oral, 800 mg, C1D1, 800 mg QD, n=1, read-out: AUCinf, Geo-mean): 66200 ng·h/mL
AUC(0-inf) (oral, 800 mg, C1D1, 800 mg QD, n=1, read-out: AUCinf, Mean (SD)): 66200 ng·h/mL
AUC(0-inf) (oral, 800 mg, C1D1, 800 mg QD, n=1, read-out: AUCinf, Median (Min, max)): 66200 ng·h/mL
Cmax (oral, 800 mg, C1D1, 800 mg QD, n=1, read-out: Cmax, Geo-mean): 6080 ng/mL
Cmax (oral, 800 mg, C1D1, 800 mg QD, n=1, read-out: Cmax, Mean (SD)): 6080 ng/mL
Cmax (oral, 800 mg, C1D1, 800 mg QD, n=1, read-out: Cmax, Median (Min, max)): 6080 ng/mL
half-life (oral, 800 mg, C1D1, 800 mg QD, n=1, read-out: T1/2, Geo-mean (converted)): 8.85 h
half-life (oral, 800 mg, C1D1, 800 mg QD, n=1, read-out: T1/2, Mean (SD) (converted)): 8.85 h
half-life (oral, 800 mg, C1D1, 800 mg QD, n=1, read-out: T1/2, Median (Min, max) (converted)): 8.85 h
Tmax (oral, 800 mg, C1D1, 800 mg QD, n=1, read-out: Tmax, Median (Min, max)): 0.483 h
AUC(0-inf) (oral, 1000 mg, C1D1, 1000 mg QD, n=3, read-out: AUCinf, Geo-mean): 75700 ng·h/mL
AUC(0-inf) (oral, 1000 mg, C1D1, 1000 mg QD, n=3, read-out: AUCinf, Mean (SD)): 78000 ng·h/mL
AUC(0-inf) (oral, 1000 mg, C1D1, 1000 mg QD, n=3, read-out: AUCinf, Median (Min, max)): 66000 ng·h/mL
half-life (oral, 1000 mg, C1D1, 1000 mg QD, n=3, read-out: T1/2, Geo-mean (converted)): 9.94 h
half-life (oral, 1000 mg, C1D1, 1000 mg QD, n=3, read-out: T1/2, Mean (SD) (converted)): 10 h
half-life (oral, 1000 mg, C1D1, 1000 mg QD, n=3, read-out: T1/2, Median (Min, max) (converted)): 9.32 h
AUC(0-t) (oral, 1000 mg, C1D1, 1000 mg QD, n=4, read-out: AUC0-t, Geo-mean): 69700 ng·h/mL
AUC(0-t) (oral, 1000 mg, C1D1, 1000 mg QD, n=4, read-out: AUC0-t, Mean (SD)): 74300 ng·h/mL
AUC(0-t) (oral, 1000 mg, C1D1, 1000 mg QD, n=4, read-out: AUC0-t, Median (Min, max)): 70100 ng·h/mL
Cmax (oral, 1000 mg, C1D1, 1000 mg QD, n=4, read-out: Cmax, Geo-mean): 5080 ng/mL
Cmax (oral, 1000 mg, C1D1, 1000 mg QD, n=4, read-out: Cmax, Mean (SD)): 5410 ng/mL
Cmax (oral, 1000 mg, C1D1, 1000 mg QD, n=4, read-out: Cmax, Median (Min, max)): 5230 ng/mL
Tmax (oral, 1000 mg, C1D1, 1000 mg QD, n=4, read-out: Tmax, Median (Min, max)): 2 h
AUC(0-t) (oral, 1000 mg, C1D15, 1000 mg QD, n=2, read-out: AUC0-t, Geo-mean): 48000 ng·h/mL
AUC(0-t) (oral, 1000 mg, C1D15, 1000 mg QD, n=2, read-out: AUC0-t, Mean (SD)): 48300 ng·h/mL
AUC(0-t) (oral, 1000 mg, C1D15, 1000 mg QD, n=2, read-out: AUC0-t, Median (Min, max)): 48300 ng·h/mL
Cmax (oral, 1000 mg, C1D15, 1000 mg QD, n=2, read-out: Cmax, Geo-mean): 4870 ng/mL
Cmax (oral, 1000 mg, C1D15, 1000 mg QD, n=2, read-out: Cmax, Mean (SD)): 5110 ng/mL
Cmax (oral, 1000 mg, C1D15, 1000 mg QD, n=2, read-out: Cmax, Median (Min, max)): 5110 ng/mL
concentration at 15 day (oral, 1000 mg, C1D15, 1000 mg QD, n=2): 674 ng/mL
Tmax (oral, 1000 mg, C1D15, 1000 mg QD, n=2, read-out: Tmax, Median (Min, max)): 0.792 h
half-life (oral, across different doses, read-out: Terminal T1/2 (converted)): ~11 h
Tmax (oral, fasting, 100–1000 mg QD and 200–400 mg BID, read-out: Tmax): ~1 h
Tmax (po, D1 and D15, read-out: Median Tmax, range across dose groups): 0.483 to 2 h
half-life (po, read-out: Mean terminal half-life (T1/2), range across dose groups): 8.49 to 13.8 h
